Source: US20090042988A1, “PHARMACEUTICAL COMPOSITIONS CONTAINING A MEGLITINIDE COMPOUND FOR PREVENTING HEPATIC FIBROSIS” (KURUME UNIVERSITY, priority 2006, published 2009)
“And” between values parts separate entries of the source, which are not always exact repeats. Equal entries are not always repeated. “Also recorded” adds a separate entry of the source.

How the values were obtained:
[1] = Diabetic indexes (HbA1c, fasting blood glucose, blood glucose 2 hours after glucose tolerance test) in NASH patients with diabetes given nateglinide; format: in vivo; conditions: per patient, Case 1-5
Procedure: In 0th week and 12th week or 16 week, as the diabetic indexes, the fasting blood glucose, the blood glucose 2 hours after the glucose tolerance test, and hemoglobin A1c, as the evaluation of the liver, the degree of fatty liver determined by liver/spleen ratio of CT and liver biopsy tissues for each case were histologically analyzed to score hepatocellular degeneration, pericellular fibrosis, perivenular fibrosis, portal fibrosis or the like (Brunt E M et al. Am J Gastroenterol. 1999 94: 2467-2474).

fatty liver = assay: Degree of fatty liver by liver/spleen ratio of CT in NASH patients with diabetes given nateglinide; format: in vivo
Text: 5 patients were selected as the subjects, who had clinical features of fatty liver found by the abdominal ultrasound or the abdominal CT, had negative test results in various virus markers and autoantibody, could deny a drinking history or a drug history; were diagnosed as NASH by a liver biopsy based on Brunt's scale (Am J Gastroenterol. 1999 94: 2467-2474), and had diabetes on which diet and exercise therapies could not sufficiently produce the therapeutic effect. […] Am J Gastroenterol. 1999 94: 2467-2474).

liver biopsy tissues [2] = conditions: 16 weeks, 5 patients with diabetes diagnosed as NASH (Non-patent Literature 10); cited from earlier work
ATP-citrate lyase = conditions: nateglinide administered before glucose load; diabetic model animal; cited from earlier work
[3] = twelve-week administration; 53 fatty liver cases with diabetes or 5 cases where GPT>GOT; cited from earlier work
liver biopsy tissues [4] = assay: Histological scoring of liver biopsy tissues (Brunt's scale) in NASH patients with diabetes given nateglinide;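 note: patients dosed orally with 90 mg thrice daily ahead of meals over 16 weeks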
Procedure: Meanwhile, the degree of hepatic fibrosis herein mentioned is evaluated by the steps comprising of treating the tissue section of liver biopsy samples with the method of specifically staining the fibrillary element such as Masson's trichrome stain, Sweet's reticulin stain or Azan stain; and then determining the quantity thereof per distinctive fibrosis images or evaluating them as stages. As one example, since hepatocellular necrosis or degeneration in NASH often occurs in areas of zone 3, the portal fibrosis is evaluated corresponding to the degree thereof on a scale of 0 to 4 when pericellular fibrosis, perivenular fibrosis or pathology of the region corresponding to the areas of zone 3 is advanced. Further, the degree is comprehensively classified as: Stage 1: perivascular/perisinusoidal/pericellular fibrosis partially or widely exists centering on zone 3; Stage 2: portal fibrosis partially or widely exists in addition to Stage 1; Stage 3: bridging fibrosis partially or widely exists; and Stage 4: cirrhosis.
Hepatocellular degeneration is determined as ballooning of hepatocytes after treating the section of liver biopsy tissues with hematoxylin-eosin staining. Hepatocellular degeneration is evaluated based on the number of the cells observed in the visual field (Non-patent Literature 11).

[5] = after nateglinide 90 mg orally three times per day (12th or 16th week)
[6] = Δ: value before admin. − value after admin., 0th and 12th weeks
[7] = Δ: value before admin. − value after admin., per patient, Case 1-5
[8] = after nateglinide administration, Brunt score, per patient, Case 1-5
[9] = after nateglinide administration, score, per patient, Case 1-5

For `CC(C)[C@H]1CC[C@H](C(=O)N[C@H](Cc2ccccc2)C(=O)O)CC1` [nateglinide, (−)-N-(trans-4-isopropylcyclohexanecarbonyl)-D-phenylalanine], which “BG 2 hrs. (blood glucose 2 hours after the glucose tolerance test)” value [1, 5] is on record?
The value was 199 mg/dL and 105 mg/dL and 238 mg/dL and 337 mg/dL and 118 mg/dL.

And the fasting blood glucose [1, 5]?
The fasting blood glucose was 106 mg/dL and 119 mg/dL and 115 mg/dL and 163 mg/dL and 100 mg/dL.

And the HbA1c ([1]; after nateglinide 90 mg orally three times per day before each meal (12th or 16th week))?
Its HbA1c is 5.5% and 5.6% and 6.2% and 7.1% and 5%.

What about the “Δ BG 2 hrs. (blood glucose 2 hours after the glucose tolerance test)” value [1, 6] of the same compound?
The value was 17 mg/dL and 89 mg/dL and 30 mg/dL and 88 mg/dL and 48 mg/dL.

What about the “Δ HbA1c” value [1, 6] of the same compound?
Its value is 0.1% (2×) and −0.1% and 0.5% and 0.8%.

What about the “Δ fasting blood glucose” value [1, 6] of the same compound?
Its value is 20 mg/dL and -6 mg/dL and -5 mg/dL and 7 mg/dL and 39 mg/dL.

What about the “CT score liver/spleen ratio” value (fatty liver; after nateglinide administration, per patient, Case 1-5) of the same compound?
The value was 1 and 0.9 and 0.95 and 0.8 and 1.05.

What about the “improvement effect on fatty liver” value (fatty liver; cases whose diabetic indexes were not improved) of the same compound?
The value was “an improvement effect on fatty liver was low”.

What about the “Δ CT score liver/spleen ratio” value (fatty liver; [7]) of the same compound?
Its value is −0.09 and −0.335 and −0.06 and −0.2 and −0.25.

What about the “fatty liver, hepatic inflammation, hepatic degeneration, hepatic fibrosis by liver biopsies before and after administration” value (liver biopsy tissues [2]) of the same compound?
Its value is “the fatty liver diminished, and hepatic inflammation, hepatic degeneration or hepatic fibrosis was improved”.

And the “glucose-induced expression of ATP-citrate lyase in the liver” value (ATP-citrate lyase)?
The value was “inhibits glucose-induced expression of ATP-citrate lyase”.

What about the “GOT and GPT (index of hepatic injury)” value [3] of the same compound?
The value was “statistically significantly inhibits GOT and GPT”.

What about the grade (liver biopsy tissues [4]; [8]) of the same compound?
The grade was 1 (2×) and 2 (2×) and 1.5.

What about the stage (liver biopsy tissues [4]; [8]) of the same compound?
The stage was 2 (2×) and 1 (2×) and 1.5.

What about the hepatocellular degeneration (liver biopsy tissues [4]; [9]) of the same compound?
The hepatocellular degeneration was 1 (4×) and 2.

And the pericellular fibrosis (liver biopsy tissues [4]; [9])?
Its pericellular fibrosis is 1 (4×) and 0.

What about the perivenular fibrosis (liver biopsy tissues [4]; [9]) of the same compound?
The perivenular fibrosis was 1 (4×) and 2.

What about the “portal area neutrophil infiltration” value (liver biopsy tissues [4]; [9]) of the same compound?
Its value is 0 (3×) and 1 (2×).

And the portal fibrosis (liver biopsy tissues [4]; [9])?
Its portal fibrosis is 2 (2×) and 1 and 1.5 and 0.5.

What about the portal vein inflammation (liver biopsy tissues [4]; [9]) of the same compound?
The portal vein inflammation was 0 (4×) and 1.

And the “improvement of fatty liver, hepatocellular degeneration, pericellular fibrosis, perivenular fibrosis or portal fibrosis” value (liver biopsy tissues [4]; cases whose diabetic indexes were improved by nateglinide)?
The value was “improvements were also observed”.

And the “improvement of hepatocellular degeneration, pericellular fibrosis, perivenular fibrosis or portal fibrosis” value (liver biopsy tissues [4]; cases whose diabetic indexes were not improved (Cases 1 and 3))?
The value was “hepatic inflammation, degeneration or fibrosis thereof was improved; also recorded: almost the same improvements were observed”.

What about the Δ grade (liver biopsy tissues [4]; [7]) of the same compound?
The Δ grade was 1 (3×) and 0.5 and 0.

And the Δ hepatocellular degeneration (liver biopsy tissues [4]; [7])?
The Δ hepatocellular degeneration was 1 (3×) and 0 and 2.

What about the Δ pericellular fibrosis (liver biopsy tissues [4]; [7]) of the same compound?
The Δ pericellular fibrosis was 2 (2×) and 1 (3×).

And the Δ perivenular fibrosis (liver biopsy tissues [4]; [7])?
The Δ perivenular fibrosis was 1.

What about the “Δ portal area neutrophil infiltration” value (liver biopsy tissues [4]; [7]) of the same compound?
Its value is 0 (3×) and 1 (2×).

What about the Δ portal fibrosis (liver biopsy tissues [4]; [7]) of the same compound?
The Δ portal fibrosis was 1 (2×) and 0.5 (2×) and 0.

And the “Δ portal vein inflammation” value (liver biopsy tissues [4]; [7])?
Its value is 1 (4×) and 2.

What about the Δ stage (liver biopsy tissues [4]; [7]) of the same compound?
The Δ stage was 1 (2×) and 0 (2×) and 0.5.
